Reference: the NIST ThermoML archive (doi:10.1016/j.jct.2016.07.026)
Numbers after ± are expanded uncertainties.

Assay: wn = mass fraction of the nth substance listed
Details: 101 kPa, Liquid, Concentric cylinders viscometry

O=C([O-])[O-].[K+].[K+] [potassium carbonate] + O
viscosity [mPa·s]
Details	303.2 K	313.2 K	323.2 K
w1 = 0.15	1.27 ± 0.04	1.08 ± 0.04	0.92 ± 0.04
w1 = 0.2	1.43 ± 0.04	1.22 ± 0.04	1.05 ± 0.04
w1 = 0.2501	1.64 ± 0.04	1.39 ± 0.04	1.2 ± 0.04
